{
  "source": "patent US20220104481A1",
  "about": "“CRYOPRESERVATION OF STEM CELLS” (TiGenix, S.A.U., priority 2019, published 2022)",
  "type_in_all_cases": "cell-based, human",
  "key": {"ASCs [1]": {"test_system": "ASCs", "assay": "Post-thaw treatment with NAC in plating medium: cell growth after thawing", "procedure": "A 600 mM stock of NAC (SIGMA) was prepared in Milli-Q water (Millipore). This stock was used for pre-treatment and post-treatment by adding directly 50 μL stock solution per well into 5 mL of medium, making a final concentration of 6 mM. For 2 mM, only 16.7 μL were added per well, and in the case of 12 mM, 100 μL of stock were added. DMSO was used as the vehicle for sc79 and LY294. The effect of post-thaw treatment with different concentrations of NAC (post-thaw NAC treatment) on cell growth was also studied. ASCs were frozen (without NAC pretreatment), thawed as discussed above, and then treated with three different NAC concentrations (2, 6 and 12 mM) in complete DMEM prior to plating, and the cell numbers at day 4, 11 and 14 were analysed."}, "ASCs [2]": {"test_system": "ASCs", "assay": "ASC identity assay by flow cytometry (CD29, CD73, CD90, CD105)", "conditions": "6 mM NAC pretreatment; two weeks in culture post-thawing; donor A (FIG. 7)"}, "[3]": {"test_system": "mature dendritic cells (mDC)", "assay": "Co-culture of monocytes with ASCs: mDC differentiation, activation clusters (microscopy)", "conditions": "NAC-pretreated ASCs, donors A and B, transwell co-culture (FIGS. 10, 11)", "procedure": "Frozen vials of PBMCs were thawed, counted and CD14^+ CD16^− monocytes were isolated using the Dynabeads Untouched Human Monocytes kit (Dynal #11350D), following the manufacturer's instructions.\nIsolated CD14^+ CD16^− monocytes (see above) were plated in 5 mL of RPMIc at 1.5 million cells per 6-well (Falcon #353046), in normoxia. The following factors were added for differentiation into non-polarized M0 macrophages or further polarization into M1, M2 macrophages and mature dendritic cells (mDC) populations in monocultures (based on several publications, including Beyer et al., PLoS One (2012) 7(9): e45466; Erbel et al., J. Vis. Exp. (2013) 76: e50332; Zhou et al, 2014; Tarique et al, American Journal of Respiratory Cell and Molecular Biology 2015; 53(5):676-688.\nImmature DC (iDC): RPMIc+5 ng/mL GM-SCF+10 ng/mL IL-4 for 5 days Maturation of DC (mDC): at day 5, add 40 ng/mL LPS (i.e. add 500 μL/well of RPMIc supplemented with 400 ng/mL LPS to the pre-existing media). Human recombinant GM-CSF (#100-22B) and IL-4 (#200-04) were from Peprotech. LPS (#L8274) was from SIGMA. The addition of GM-C SF and IL4 mediates the differentiation to immature dendritic cells (iDC); 5 days later addition of LPS induces the maturation of iDCs to mDCs, and after 2 days the phenotype and function of these mature DC were analysed in the presence or absence of the ASC. Co-Culture Experiments with ASCs […]"}, "[4]": {"test_system": "CD14 and CD1a on mature dendritic cells", "assay": "Surface expression of CD14 and CD1a by mDC co-cultured with ASCs (flow cytometry)", "conditions": "NAC-pretreated ASCs, donors A and B (FIG. 15)", "procedure": "After differentiation in monoculture or co-culture in vitro (the differentiation conditions, including the cytokines used, concentrations and times of differentiation, are provided in Example 7), macrophages and mDC were harvested using 0.05% trypsin-EDTA for 10 minutes at 37° C., after supernatants were collected and frozen for future cytokine and/or HPLC analysis. After mDC were counted, they were distributed into 96-well V bottom plates for staining (Nunc #249570). Cells were incubated in Blue MACS buffer with 1% human serum for 15 minutes on ice, to block Fcγ receptor-mediated nonspecific antibody binding. Subsequently, cells were stained for 20 minutes on ice with the following antibody mixes (staining in 50 μL of 1:10 antibody dilution; except for CD64, which was 1:20 dilution): Cell viability was assessed by addition of 5 μL of 7AAD per well and staining for 10 minutes on ice, and samples were acquired in a BD Fortessa cytometer. Results were analysed in FSC Express software. The effect of NAC pretreatment (according to Example 2) on thawed ASC mediated effects on the surface expression of CD14 and CD1a on mature dendritic cells was also measured by flow cytometry. mDC are CD14-CD1a+. CD1a is the antigen-presenting molecule, and mediates the presentation of antigens by mDC to other cells of the immune system to activate their response. […]"}},
  "note": "“Also recorded” adds a separate entry of the source.",
  "data": [
    {"smiles": "CC(=O)N[C@@H](CS)C(=O)O", "note": "[NAC, N-Acetylcysteine]", "values": [
      {"measurement": "number of viable cells", "setting": "ASCs [1]; post-thaw treatment with 2 mM NAC, 7 days of culture (FIG. 6)", "value": "~6,300 cells/cm^2"},
      {"measurement": "number of viable cells", "setting": "ASCs [1]; post-thaw treatment with 2 mM NAC, 11 days of culture (FIG. 6)", "value": "~18,700 cells/cm^2"},
      {"measurement": "number of viable cells", "setting": "ASCs [1]; post-thaw treatment with 2 mM NAC, 14 days of culture (FIG. 6)", "value": "~18,300 cells/cm^2"},
      {"measurement": "growth rate", "setting": "ASCs [1]; post-thaw treatment with 2 mM NAC, between days 7 and 11 (FIG. 6)", "value": "approximately 3100 cells/cm^2/day"},
      {"measurement": "cell number versus non-treated", "setting": "ASCs [1]; post-thaw treatment with 2 mM NAC, sustained up to 2 weeks in culture (FIG. 6)", "value": "increase in cell number"},
      {"measurement": "cell density versus non-treated", "setting": "ASCs [1]; post-thaw treatment with 6 mM NAC (FIG. 6)", "value": "lower cell densities"},
      {"measurement": "cell density versus non-treated", "setting": "ASCs [1]; post-thaw treatment with 12 mM NAC (FIG. 6)", "value": "lower cell densities"},
      {"measurement": "expression of ASC identity markers CD29, CD73, CD90 and CD105", "setting": "ASCs [2]", "value": "does not alter the expression of ASC identity markers"},
      {"measurement": "ASC modulation of mDC activation (no activation clusters)", "setting": "[3]", "value": "not disrupted"},
      {"measurement": "ASC-induced formation of CD14+CD1a- regulatory mDC population", "setting": "[4]", "value": "does not alter the ability of thawed ASCs to induce the formation of this mDC regulatory population; also recorded: did not modify this effect"}
    ]}
  ]
}
